Where two headings read alike, the source gives them in different places.
What was measured:
[1] = molecular target: HarmOR12 (Helicoverpa armigera, UniProt A0A172QGF5); test: Xenopus oocyte two-electrode voltage clamp, HarmOR12 + Orco; format: cell-based
Source text: (§1) In order to expand our analysis on the response properties of HarmORs, we conducted dose–response analyses for the 28 functional HarmORs. […] Many of these terpenes have been proposed to be defensive chemicals of plants.
(§2) Briefly, the full-length gene of each OR and Orco were subcloned into the eukaryotic expression vector pT7TS. cRNAs were generated from linearized expression vectors using the mMESSAGE mMACHINE T7 kit (Ambion, Austin, TX). […] The respective Orcos of different species were used for functional studies of OR42 orthologs except for the four butterfly species (V. tameamea, P. xuthus, D. plexippus, and P. rapae), in which we used the Orco from P. xuthus.
(§3) Stock solutions of each odorant were prepared at 1 M using DMSO as a solvent, and each odorant was diluted in 1× Ringer’s solution to the indicated concentrations for electrophysiological recording. For functional screening of each HarmOR, a panel of 67 odorants belonging to three types of chemical classes: terpenes, aromatics, and aliphatics (short-chain fatty acid) were used (supplementary table S1, Supplementary Material online). For functional studies of OR42 orthologs from different species, six odorants including PAA, benzaldehyde, (E)-2-hexen-1-al, cinnamaldehyde, 2-phenylethanol, and heptanal were used.

[2] = molecular target: T1, HarmOR40 (Helicoverpa armigera, UniProt A0A7T3KBF4); test: Xenopus oocyte two-electrode voltage clamp, HarmOR40 + Orco; format: cell-based
T1 sequence (A0A7T3KBF4 1-401): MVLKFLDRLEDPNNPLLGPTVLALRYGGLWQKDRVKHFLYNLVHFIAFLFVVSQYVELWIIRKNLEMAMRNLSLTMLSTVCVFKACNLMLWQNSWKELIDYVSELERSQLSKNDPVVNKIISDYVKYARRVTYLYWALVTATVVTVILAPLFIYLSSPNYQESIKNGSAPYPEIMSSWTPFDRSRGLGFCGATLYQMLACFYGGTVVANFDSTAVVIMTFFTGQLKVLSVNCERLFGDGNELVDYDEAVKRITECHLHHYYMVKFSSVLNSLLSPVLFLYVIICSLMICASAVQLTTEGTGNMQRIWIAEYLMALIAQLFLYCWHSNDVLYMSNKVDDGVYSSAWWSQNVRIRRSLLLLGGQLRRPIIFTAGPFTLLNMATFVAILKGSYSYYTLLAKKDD
Description: (§4) In order to expand our analysis on the response properties of HarmORs, we conducted dose–response analyses for the 28 functional HarmORs. […] Six HarmORs (OR3, 22, 48, 50, 56, and 66) could not be activated by any ligand at 10^−5 M. For the other 22 HarmORs, dose–response curves were generated and EC50 values of their major ligands were calculated (fig. 2A and supplementary table S2, Supplementary Material online). The HarmOR repertoire was highly efficient in terpene detection, since the lowest EC50 values were obtained for such compounds. Many of these terpenes have been proposed to be defensive chemicals of plants. […] DMNT is also one of the oviposition deterring compounds found in larval frass of some Lepidoptera species such as S. littoralis ([Anderson et al. 1993]).
(§5) Functional characterization of individual ORs was performed by heterologous expression in Xenopus oocytes combined with a two-electrode voltage-clamp system ([Wang et al. 2010]). Briefly, the full-length gene of each OR and Orco were subcloned into the eukaryotic expression vector pT7TS. cRNAs were generated from linearized expression vectors using the mMESSAGE mMACHINE T7 kit (Ambion, Austin, TX). Then, the cRNA mixture of ORx and Orco (27.6 ng each) was injected (Nanoliter 2010, WPI Inc., Sarasota, FL) into oocytes (stage V–VII). The respective Orcos of different species were used for functional studies of OR42 orthologs except for the four butterfly species (V. tameamea, P. xuthus, D. plexippus, and P. rapae), in which we used the Orco from P. xuthus. After incubation in nutrient solution at 18 °C for 3–5 days, the response profile of each oocyte to multiple plant odorants was recorded via a two-electrode voltage clamp (OC-725C oocyte clamp, Warner Instruments, Hamden, CT) at a holding potential of −80 mV. Data were acquired by using a Digidata 1440 A and were analyzed by pCLAMP 10.2 software (Axon Instruments Inc., Union City, CA).
as §3

[3] = molecular target: T2, HarmOR27 (Helicoverpa armigera, UniProt A0A7T3KAG1); test: Xenopus oocyte two-electrode voltage clamp, HarmOR27 + Orco; format: cell-based; conditions: HarmOR27; dose response in oocytes; unit M; read-out: EC50
T2 sequence (A0A7T3KAG1 1-426): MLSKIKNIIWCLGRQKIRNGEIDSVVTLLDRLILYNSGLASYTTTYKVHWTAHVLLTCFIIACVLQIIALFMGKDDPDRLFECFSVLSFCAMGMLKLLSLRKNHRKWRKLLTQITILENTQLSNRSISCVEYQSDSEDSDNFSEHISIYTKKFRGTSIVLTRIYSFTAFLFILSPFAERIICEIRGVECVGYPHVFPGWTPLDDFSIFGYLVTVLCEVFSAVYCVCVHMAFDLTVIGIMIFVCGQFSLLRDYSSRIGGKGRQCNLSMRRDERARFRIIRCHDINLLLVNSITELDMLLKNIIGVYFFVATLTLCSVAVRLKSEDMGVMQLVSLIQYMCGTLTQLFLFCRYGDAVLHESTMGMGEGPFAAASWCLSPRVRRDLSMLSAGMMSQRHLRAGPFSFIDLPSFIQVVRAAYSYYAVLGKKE
Description: as §4, §5, §3

[4] = molecular target: HarmOR52 (Helicoverpa armigera, UniProt A0A7T3KAH2); test: Xenopus oocyte two-electrode voltage clamp, HarmOR52 + Orco; format: cell-based
Description: as §4, §5, §3

[5] = molecular target: HarmOR31 (Helicoverpa armigera, UniProt A0A7T3N2E9); test: Xenopus oocyte two-electrode voltage clamp, HarmOR31 + Orco; format: cell-based; conditions: HarmOR31; dose response in oocytes; unit M; read-out: EC50
Source text: as §1, §2, §3

[6] = molecular target: T3, HarmOR60 (Helicoverpa armigera, UniProt A0A7T3N1B9); test: Xenopus oocyte two-electrode voltage clamp, HarmOR60 + Orco; format: cell-based; conditions: HarmOR60; dose response in oocytes; unit M
T3 sequence (A0A7T3N1B9 1-391): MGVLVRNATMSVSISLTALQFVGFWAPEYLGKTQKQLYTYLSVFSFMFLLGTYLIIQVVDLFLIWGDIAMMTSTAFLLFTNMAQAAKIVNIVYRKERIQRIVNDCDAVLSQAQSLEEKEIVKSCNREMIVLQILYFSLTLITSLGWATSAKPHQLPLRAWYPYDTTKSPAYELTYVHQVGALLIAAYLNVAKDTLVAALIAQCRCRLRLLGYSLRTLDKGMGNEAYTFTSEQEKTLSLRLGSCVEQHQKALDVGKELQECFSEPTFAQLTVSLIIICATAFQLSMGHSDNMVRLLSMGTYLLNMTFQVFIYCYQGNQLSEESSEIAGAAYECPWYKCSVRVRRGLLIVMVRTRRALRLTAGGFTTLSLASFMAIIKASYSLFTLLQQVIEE
Description: as §4
as §5, with “CA). […]” for “CA).”

[7] = system: HarmOR repertoire; test: Responses of the 28 functional HarmORs across odorant doses (PCA of oocyte currents); format: cell-based, Helicoverpa armigera; conditions: odorant 10^−7 M
Source text: Vectors quantifying the responses of the 28 ORs to each odorant were projected onto a 3D landscape. This 3D representation captured 78.34% (10^−4 M), 65.11% (10^−5 M), 68.89% (10^−6 M), and 84.52% (10^−7 M) of the variation in the original 28D data set across different odorant concentrations. […] In addition, the capacity of the H. armigera odor space was highly dependent on odorant concentration. As the concentrations of odorants decreased, their positions in the odor space converged, with the ability to discriminate different odorants diminishing.
as §5, §3
Graphs and data statistics of OR response spectra, dose responses, EAG, and behavioral experiments were generated by Prism 7 (GraphPad Software, La Jolla, CA). A heat map was generated in Excel 2010 (Microsoft Corporation, WA). […] For tuning breadth analysis, the kurtosis values (K) were calculated by SPSS 22 (SPSS Inc., Chicago, IL) and were used to define the tuning spectra width, where smaller K values represent broader tuning spectra (fig. 1B). […]

[8] = molecular target: HarmOR36 (Helicoverpa armigera, UniProt A0A7T3N0K7); test: Xenopus oocyte two-electrode voltage clamp, HarmOR36 + Orco; format: cell-based; conditions: dose response in oocytes, unit M
Description: as §4, §5, §3

[9] = molecular target: HarmOR59 (Helicoverpa armigera, UniProt A0A7T3KAU6); test: Xenopus oocyte two-electrode voltage clamp, HarmOR59 + Orco; format: cell-based
Description: as §4, §5, §3

[10] = molecular target: HarmOR42 (Helicoverpa armigera, UniProt A0A7T3KAF6); test: Xenopus oocyte two-electrode voltage clamp, HarmOR42 + Orco; format: cell-based; conditions: 67 odorants at 10^−4 M
Source text: In preliminary screening, we used a high dosage (10^−4 M) of odorants. […] Most functional ORs responded robustly to multiple odorants. The strongest response (up to ∼6,000 nanoampere, nA) we detected was that of HarmOR42 toward the aromatic compound PAA. Further, the response profiles of the 28 HarmORs appeared to be highly differentiated, with no apparent overlap in their tuning spectra (with the exception of HarmOR12 and 36) according to functional cluster analysis (fig. 1A).
as §4, §5, §3

[11] = system: H. armigera moth antennae; test: Electroantennography (EAG), wild-type vs HarmOR42 knock-out moths; format: in vivo, Helicoverpa armigera; conditions: single odorants, 1 μg
Source text: We next conducted a loss-of-function study by generating a HarmOR42-lacking H. armigera strain by CRISPR/Cas9 targeting the first coding exon. Homozygous mutants were obtained with a large segment deletion of 203 bp and a 6-bp nonhomologous insertion in the genome (fig. 6B), introducing a premature stop codon in the coding sequence. […] The most likely hypothesis is that HarmOR42 is not the major receptor for sensing this compound in H. armigera. As a control, we tested the response of male moths to the sex pheromone component Z11-16: Ald that is not a ligand of HarmOR42. As expected, we observed no difference between the EAG responses of mutant and wild-type moths to this compound.
The antennae of 2- to 3-day-old virgin male and female moths were cut at the base of the flagellum. After removing the tip, one antenna was inserted between two glass electrodes filled with 0.1 M KCl solution. In each test, a 10-μl solution of each odorant was added onto a piece of filter paper (0.5 cm × 0.5 cm) and then inserted into a Pasteur pipette. About 100 ng/μl stock solutions of individual odorants and different doses of the mixture IAC were prepared with paraffin oil. A continuous airflow of 30 ml/s was produced by a stimulus controller (CS-55, Syntech, Kirchzarten, Germany). Odor stimulation was controlled by a puff of purified air (0.2 s at 10 ml/s airflow) from the CS-55. EAG signals were amplified with a 10× AC/DC headstage preamplifier (Syntech) and further acquired with an Intelligent Data Acquisition Controller (IDAC-4-USB, Syntech) ([Cao et al. 2016]). The signals were recorded, monitored, and analyzed using Syntech EAG-software (Syntech, Germany). The EAG response values for each compound were calculated by subtracting the value of the same antennae corresponding to a solvent blank of paraffin oil.

[12] = molecular target: HarmOR23 (Helicoverpa armigera, UniProt A0A7T3KAE3); test: Xenopus oocyte two-electrode voltage clamp, HarmOR23 + Orco; format: cell-based; conditions: dose response in oocytes, unit M printed in text only
Description: as §4
as §5, with “CA). […]” for “CA).”

[13] = HarmOR40, dose response in oocytes, unit M printed in text only, read-out: EC50
[14] = HarmOR12, dose response in oocytes, unit M, read-out: EC50
[15] = HarmOR59, dose response in oocytes, unit M, read-out: EC50

Chain of HarmOR52 (A0A7T3KAH2 entry or part of it): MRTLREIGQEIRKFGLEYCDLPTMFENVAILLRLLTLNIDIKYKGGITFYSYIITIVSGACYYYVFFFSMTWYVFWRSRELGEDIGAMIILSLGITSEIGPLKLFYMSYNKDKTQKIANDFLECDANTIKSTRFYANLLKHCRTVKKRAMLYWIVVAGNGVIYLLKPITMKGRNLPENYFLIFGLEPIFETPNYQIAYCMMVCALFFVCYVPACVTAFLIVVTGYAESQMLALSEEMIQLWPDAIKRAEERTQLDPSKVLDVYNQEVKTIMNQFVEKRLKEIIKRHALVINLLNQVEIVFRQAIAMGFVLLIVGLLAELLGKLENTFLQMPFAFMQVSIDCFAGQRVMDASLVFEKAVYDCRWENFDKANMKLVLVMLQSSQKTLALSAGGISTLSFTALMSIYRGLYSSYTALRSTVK
Chain of HarmOR36 (A0A7T3N0K7 entry or part of it): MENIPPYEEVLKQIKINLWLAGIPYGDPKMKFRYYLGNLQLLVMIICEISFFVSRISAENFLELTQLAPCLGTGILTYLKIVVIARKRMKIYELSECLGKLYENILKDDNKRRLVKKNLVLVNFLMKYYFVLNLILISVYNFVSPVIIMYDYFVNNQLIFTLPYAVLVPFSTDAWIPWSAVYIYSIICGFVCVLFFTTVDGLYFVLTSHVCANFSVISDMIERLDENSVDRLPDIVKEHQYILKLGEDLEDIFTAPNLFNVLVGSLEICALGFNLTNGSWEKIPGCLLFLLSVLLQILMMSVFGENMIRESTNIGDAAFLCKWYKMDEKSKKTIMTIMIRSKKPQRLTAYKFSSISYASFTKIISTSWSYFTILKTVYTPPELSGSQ
Chain of HarmOR59 (A0A7T3KAU6 entry or part of it): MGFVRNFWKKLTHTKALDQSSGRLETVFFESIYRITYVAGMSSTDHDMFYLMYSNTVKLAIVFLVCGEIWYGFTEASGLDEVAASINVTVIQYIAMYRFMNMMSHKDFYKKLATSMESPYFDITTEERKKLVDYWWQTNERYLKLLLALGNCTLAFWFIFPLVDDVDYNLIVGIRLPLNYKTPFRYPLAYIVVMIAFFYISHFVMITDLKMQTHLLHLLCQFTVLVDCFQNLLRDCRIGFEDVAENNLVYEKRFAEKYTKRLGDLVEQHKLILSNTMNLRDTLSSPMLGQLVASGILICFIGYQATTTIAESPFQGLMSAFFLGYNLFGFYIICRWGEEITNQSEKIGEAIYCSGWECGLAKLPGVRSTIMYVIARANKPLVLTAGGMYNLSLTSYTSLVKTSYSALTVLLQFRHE
Chain of HarmOR23 (A0A7T3KAE3 entry or part of it): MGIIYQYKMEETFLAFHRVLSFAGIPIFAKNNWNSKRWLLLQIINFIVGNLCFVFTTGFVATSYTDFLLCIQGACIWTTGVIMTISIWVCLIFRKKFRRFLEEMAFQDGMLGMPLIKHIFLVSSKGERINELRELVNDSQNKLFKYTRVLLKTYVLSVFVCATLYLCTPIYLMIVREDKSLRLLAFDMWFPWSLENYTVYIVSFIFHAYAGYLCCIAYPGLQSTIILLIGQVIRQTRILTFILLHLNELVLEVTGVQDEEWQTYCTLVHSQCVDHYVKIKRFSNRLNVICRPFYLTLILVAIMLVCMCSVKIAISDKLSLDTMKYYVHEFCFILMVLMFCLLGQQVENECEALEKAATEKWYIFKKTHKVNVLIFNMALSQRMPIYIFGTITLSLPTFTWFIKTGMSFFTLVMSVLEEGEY
Chain of HarmOR12 (A0A172QGF5 entry or part of it): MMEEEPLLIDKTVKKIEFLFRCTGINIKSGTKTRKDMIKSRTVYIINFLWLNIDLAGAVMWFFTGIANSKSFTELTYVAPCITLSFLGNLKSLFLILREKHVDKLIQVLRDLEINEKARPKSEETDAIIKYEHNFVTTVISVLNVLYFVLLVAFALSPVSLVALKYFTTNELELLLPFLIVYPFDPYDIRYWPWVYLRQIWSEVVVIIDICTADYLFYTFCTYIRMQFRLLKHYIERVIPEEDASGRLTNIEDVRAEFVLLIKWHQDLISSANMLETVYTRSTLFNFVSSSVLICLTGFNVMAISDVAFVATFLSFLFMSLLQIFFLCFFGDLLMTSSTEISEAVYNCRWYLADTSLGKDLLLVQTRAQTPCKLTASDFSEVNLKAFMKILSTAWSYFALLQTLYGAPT
Chain of HarmOR31 (A0A7T3N2E9 entry or part of it): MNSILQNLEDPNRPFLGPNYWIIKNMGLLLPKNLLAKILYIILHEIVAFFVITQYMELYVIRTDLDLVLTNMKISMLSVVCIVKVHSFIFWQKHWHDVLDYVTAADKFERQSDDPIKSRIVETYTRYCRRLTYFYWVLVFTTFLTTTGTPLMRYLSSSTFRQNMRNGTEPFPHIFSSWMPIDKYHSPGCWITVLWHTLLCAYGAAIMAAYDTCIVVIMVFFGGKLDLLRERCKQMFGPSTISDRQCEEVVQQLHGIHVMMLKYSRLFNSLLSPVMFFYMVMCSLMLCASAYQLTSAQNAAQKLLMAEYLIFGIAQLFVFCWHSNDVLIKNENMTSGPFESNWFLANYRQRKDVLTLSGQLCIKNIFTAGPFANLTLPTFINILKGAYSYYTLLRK
Chain of HarmOR42 (A0A7T3KAF6 entry or part of it): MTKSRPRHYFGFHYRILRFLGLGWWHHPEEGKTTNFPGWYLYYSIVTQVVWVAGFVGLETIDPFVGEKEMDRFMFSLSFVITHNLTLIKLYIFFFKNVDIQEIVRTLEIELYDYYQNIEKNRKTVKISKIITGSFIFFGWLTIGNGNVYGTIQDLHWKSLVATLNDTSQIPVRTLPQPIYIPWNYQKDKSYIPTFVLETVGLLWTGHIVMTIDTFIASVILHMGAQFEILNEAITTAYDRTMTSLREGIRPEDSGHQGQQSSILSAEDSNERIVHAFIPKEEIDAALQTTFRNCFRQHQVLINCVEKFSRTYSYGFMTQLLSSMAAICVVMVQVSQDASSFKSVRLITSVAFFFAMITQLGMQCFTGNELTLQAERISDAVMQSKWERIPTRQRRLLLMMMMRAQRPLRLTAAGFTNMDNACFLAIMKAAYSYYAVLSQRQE

CC(C)=CCC/C(C)=C/CO [Geraniol]
EC50 [1]: 27.6 µM
EC50 [2]: 27.8 µM

CC/C=C\CC1=C(C)CCC1=O [cis-Jasmone]
EC50 [3]: 78.6 µM

CC1(C)[C@H]2CC=C(CO)[C@@H]1C2 [(1R)-(-)-Myrtenol]
EC50 ([4]; HarmOR52, dose response in oocytes, unit M, read-out: EC50): 17.1 µM

CCCCCC1CCCC(=O)O1 (stereo not shown) [δ-Decanolactone]
EC50 [5]: 8.16 µM

C[C@@H]1CC[C@H]2C(C)(C)[C@H]3C[C@@]12CC[C@@]3(C)O [Cedrol]
EC50 [6]: 8.6 µM

OCc1ccccc1 [Benzyl alcohol]
EC50 [4]: 6.87 µM

CCC/C=C\CO [(Z)-2-Hexen-1-ol]
EC50 [4]: 16.5 µM

C=CC(C)(O)CCC=C(C)C (stereo not shown) [Linalool]
EC50 [1]: 21.2 µM
response of the HarmOR repertoire [7]: still responded
EC50 ([8]; EC50, HarmOR36): 1.16 µM

CCC/C=C/CO [(E)-2-Hexen-1-ol]
EC50 [4]: 24 µM
EC50 [9]: 1190 µM

CCCC/C=C\CCCCCCCCCC=O [Z11-16: Ald]
ligand tuning of HarmOR42 [10]: not a ligand
EAG response of HarmOR42 knock-out mutants compared with wild-type moths [11]: no difference

Farnesene
EC50 ([2]; HarmOR40, dose response in oocytes, unit M printed in text only, listed as farnesene, read-out: EC50): < 10 µM
EC50 [2, 13]: 7.9 µM
EC50 [12]: 4.79 µM
EC50 ([12]; listed as farnesene): < 10 µM

C=C[C@](C)(O)CCC=C(C)C [(-)-Linalool]
EC50 [1, 14]: 13.7 µM
EC50 ([8]; HarmOR36, read-out: EC50): 1.14 µM

CC(=O)OC/C=C(\C)CCC=C(C)C [Geranyl acetate]
EC50 [2, 13]: 7.69 µM
EC50 [12]: 5.1 µM

CC/C=C\CCO [(Z)-3-hexen-1-ol]
EC50 [4]: 23.3 µM
EC50 [9]: 1860 µM

CCc1ccc(C=O)cc1 [4-Ethylbenzaldehyde]
EC50 [9, 15]: 1190 µM

CCC(C)(O)CCCC(C)C (stereo not shown) [3,7-Dimethyl-3-octanol]
EC50 ([8]; HarmOR36, read-out: EC50): 2.91 µM

CC(C)=CCCC(C)CCO (stereo not drawn) [β-Citronellol]
EC50 [1, 14]: 80.1 µM
EC50 ([8]; HarmOR36, read-out: EC50): 4.68 µM

CCC/C=C/C=O [(E)-2-Hexen-1-al]
EC50 [9]: 3780 µM

CC/C=C\CCOC(C)=O [(Z)-3-Hexenyl acetate]
EC50 [5]: 7.51 µM

CCC/C=C/COC(C)=O [(E)-2-Hexenyl acetate]
EC50 [5]: 5.02 µM

OCCc1ccccc1 [2-Phenylethanol]
ligand tuning of HarmOR42 [10]: minor ligand
response of the HarmOR repertoire [7]: still responded
EC50 [9, 15]: 2.91 µM
EAG response of HarmOR42 knock-out mutants compared with wild-type moths [11]: no significant difference

(±)-Citronellal
EC50 [3]: 333 µM
